Patent US7109150B2, “Trifluoromethylpyrrolecarboxamides and trifluoromethylpyrrolethioamides as fungicides” (Syngenta Crop Protection, Inc., priority 1999, dated 2006)

melting point: 139 to 141 °C
Compound: Cn1cc(C(=O)Nc2ccccc2-c2ccc(Cl)s2)c(C(F)(F)F)c1 [Example 3, 1-Methyl-4-trifluoromethyl-1H-pyrrole-3-carboxylic acid [2′-(5′-chloro-thienyl)-2-benzamide]]
